Measured values as given in patent US11186564B2, “Dual NAV1.2/5HT2a inhibitors for treating CNS disorders” (Sunovion Pharmaceuticals Inc., priority 2016, dated 2021).
pIC50: −log10 of the molar value. Like-named read-outs stand apart in the source and are kept apart here.

Experiments:
[1] = biological target: human sodium channel NaV1.2 (Homo sapiens, UniProt Q99250); test: NaV1.2 inhibition, automated patch-clamp (Q-Patch HTX), slow inactivated state (state C); format: cell-based; conditions: hNaV1.2 CHO cells, slow inactivated state; for pIC50: read-out: NaV1.2 IC50; for inhibition at 1 µM: 1 μM compound, read-out: NaV1.2 (% inh), 1 μM; for inhibition at 10 µM: 10 μM compound, read-out: NaV1.2 (% inh), 10 μM
Summary of the method: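 IC50 comes from a least-squares fit of percent inhibition, relative to vehicle, of current in the slow-inactivated state. That state is reached by a 10 s prepulse to −50 mV, then 15 ms at −90 mV, then a 5 ms test pulse to 0 mV. Human NaV1.2 in stable CHO K-1 cells, held at −100 mV, automated patch clamp.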

[2] = biological target: T1, recombinant human serotonin receptor 5-HT2A (Homo sapiens, UniProt P28223); test: 5-HT2A antagonist Ca2+ assay in CHO-K1 cells (method A aequorin luminescence / method B FLIPR fluorescence); format: cell-based; conditions: antagonist mode vs EC80 of reference agonist, method A or B; for pIC50: read-out: 5HT2A IC50
T1 construct: expressed in transfected cells; method B: loaded with Ca2+ dye
Summary of the method: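 IC50 was obtained by nonlinear regression of percent inhibition of the EC80 agonist Ca2+ response in CHO-K1 cells stably expressing human 5-HT2A. The readout was aequorin luminescence with agonist injected 15 min after compound (A), or Ca2+-dye fluorescence on FLIPR with serotonin as agonist (B).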

Sequence of human sodium channel NaV1.2 (Q99250 whole entry): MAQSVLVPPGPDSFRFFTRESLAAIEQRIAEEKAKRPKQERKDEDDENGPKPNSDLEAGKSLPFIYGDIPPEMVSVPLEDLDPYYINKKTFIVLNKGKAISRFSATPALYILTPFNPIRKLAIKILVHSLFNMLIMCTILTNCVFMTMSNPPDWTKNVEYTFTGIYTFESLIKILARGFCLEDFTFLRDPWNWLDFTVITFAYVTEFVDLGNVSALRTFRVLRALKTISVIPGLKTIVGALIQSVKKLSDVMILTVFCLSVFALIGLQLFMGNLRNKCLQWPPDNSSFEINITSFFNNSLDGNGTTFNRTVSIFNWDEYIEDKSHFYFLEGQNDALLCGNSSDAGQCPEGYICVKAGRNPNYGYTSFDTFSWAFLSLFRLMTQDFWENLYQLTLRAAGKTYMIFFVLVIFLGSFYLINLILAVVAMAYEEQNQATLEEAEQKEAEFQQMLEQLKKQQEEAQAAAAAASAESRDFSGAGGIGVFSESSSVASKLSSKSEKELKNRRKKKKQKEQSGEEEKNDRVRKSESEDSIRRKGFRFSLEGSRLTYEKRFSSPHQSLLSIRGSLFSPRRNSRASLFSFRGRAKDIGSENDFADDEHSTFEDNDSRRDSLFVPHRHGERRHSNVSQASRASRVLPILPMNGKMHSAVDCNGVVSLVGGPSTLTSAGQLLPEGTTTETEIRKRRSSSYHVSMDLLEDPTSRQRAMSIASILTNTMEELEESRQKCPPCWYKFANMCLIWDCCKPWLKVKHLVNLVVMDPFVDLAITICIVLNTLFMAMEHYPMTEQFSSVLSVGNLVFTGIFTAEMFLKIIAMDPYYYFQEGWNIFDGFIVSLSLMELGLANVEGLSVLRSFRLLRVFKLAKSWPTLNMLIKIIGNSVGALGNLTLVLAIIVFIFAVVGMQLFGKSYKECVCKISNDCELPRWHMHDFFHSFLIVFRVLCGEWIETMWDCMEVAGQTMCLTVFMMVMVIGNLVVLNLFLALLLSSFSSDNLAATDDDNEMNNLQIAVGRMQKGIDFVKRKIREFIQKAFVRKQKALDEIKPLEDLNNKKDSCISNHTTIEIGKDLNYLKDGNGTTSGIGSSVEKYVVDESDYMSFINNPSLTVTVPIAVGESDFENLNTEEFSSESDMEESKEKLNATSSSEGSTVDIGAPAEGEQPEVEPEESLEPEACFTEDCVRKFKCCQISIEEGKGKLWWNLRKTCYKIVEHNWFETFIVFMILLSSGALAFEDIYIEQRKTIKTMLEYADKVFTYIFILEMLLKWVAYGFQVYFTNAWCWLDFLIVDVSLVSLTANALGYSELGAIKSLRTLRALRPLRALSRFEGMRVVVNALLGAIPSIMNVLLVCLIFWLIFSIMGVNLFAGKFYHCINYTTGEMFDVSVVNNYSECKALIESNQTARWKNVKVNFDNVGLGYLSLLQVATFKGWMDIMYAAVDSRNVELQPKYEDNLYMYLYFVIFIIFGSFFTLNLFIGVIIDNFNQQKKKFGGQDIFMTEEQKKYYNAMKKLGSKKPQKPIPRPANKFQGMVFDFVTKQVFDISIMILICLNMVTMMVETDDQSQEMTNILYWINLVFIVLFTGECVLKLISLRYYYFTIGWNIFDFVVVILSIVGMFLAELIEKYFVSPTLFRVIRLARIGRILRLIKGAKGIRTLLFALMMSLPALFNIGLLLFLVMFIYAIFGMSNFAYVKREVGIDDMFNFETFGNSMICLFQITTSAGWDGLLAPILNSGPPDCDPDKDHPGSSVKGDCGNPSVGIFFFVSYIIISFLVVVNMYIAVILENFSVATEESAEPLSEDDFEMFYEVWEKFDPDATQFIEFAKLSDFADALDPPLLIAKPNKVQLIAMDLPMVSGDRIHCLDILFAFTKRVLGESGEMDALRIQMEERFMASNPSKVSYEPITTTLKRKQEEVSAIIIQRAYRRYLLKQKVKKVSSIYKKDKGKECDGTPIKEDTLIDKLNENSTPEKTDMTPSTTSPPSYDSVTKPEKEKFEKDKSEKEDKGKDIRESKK
T1 sequence (P28223 whole entry): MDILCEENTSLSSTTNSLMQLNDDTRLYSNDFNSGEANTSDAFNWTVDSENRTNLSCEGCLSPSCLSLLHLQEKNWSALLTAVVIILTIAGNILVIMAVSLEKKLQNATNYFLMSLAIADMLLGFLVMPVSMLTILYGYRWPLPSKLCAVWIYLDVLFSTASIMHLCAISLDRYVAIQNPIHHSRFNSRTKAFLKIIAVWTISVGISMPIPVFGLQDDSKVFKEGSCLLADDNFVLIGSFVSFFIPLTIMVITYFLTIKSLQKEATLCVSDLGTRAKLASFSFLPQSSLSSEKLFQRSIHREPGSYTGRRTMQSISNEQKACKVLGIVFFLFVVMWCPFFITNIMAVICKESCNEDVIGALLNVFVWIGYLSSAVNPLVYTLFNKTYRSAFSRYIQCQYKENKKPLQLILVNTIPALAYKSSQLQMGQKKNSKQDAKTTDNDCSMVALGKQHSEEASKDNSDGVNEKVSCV

Compound	pIC50 [1]	pIC50 [2]	inhibition at 1 µM [1] [%]	inhibition at 10 µM [1] [%]	IC50 ([2]; 5HT2A IC50, μM) [µM]
c1ccc(O[C@H]2COC3(CCN(C[C@H]4CCc5ccccc54)CC3)C2)cc1 (single isomer, unassigned) [Compound 381]	6.54	7.70	–	–	–
C[C@@H]1C[C@@]2(CCc3ccccc3O2)CCN1CCN1CCc2ccccc2C1=O [Example 426, 2-(2-((2R,2′R)-2′-methylspiro[chromane-2,4′-piperidin]-1′-yl)ethyl)-3,4-dihydroisoquinolin-1(2H)-one]	–	6.80	41	–	–
COc1ccccc1CN1CCC2(CCN(CC3CCc4ccccc43)C2)C1 (centres unmarked) [Example 347, 2-((2,3-dihydro-1H-inden-1-yl)methyl)-7-(2-methoxybenzyl)-2,7-diazaspiro[4.4]nonane]	5.50	7.52	–	–	–
OC(COC1CCCCc2ccccc21)CN1CCC(Oc2ccccc2)CC1 (centres unmarked) [Example 240, 1-(4-phenoxypiperidin-1-yl)-3-((6,7,8,9-tetrahydro-5H-benzo[7]annulen-5-yl)oxy)propan-2-ol]	6.02	6.96	–	–	–
COc1ccc2c(c1)C(CN1CCC(OCc3ccccc3C)CC1)CC2 (centres unmarked) [Example 242, 1-((6-methoxy-2,3-dihydro-1H-inden-1-yl)methyl)-4-((2-methylbenzyl)oxy)piperidine]	6.64	7.05	–	–	–
Fc1ccc(O[C@H]2CCCN(CC3CCc4ccccc43)C2)cc1 (stereo partly drawn) [Example 254, (3S)-1-((2,3-dihydro-1H-inden-1-yl)methyl)-3-(4-fluorophenoxy)piperidine]	6.11	6.28	–	–	–
O[C@@H](CO[C@@H]1CCCc2ccccc21)CN1CC[C@@H](Oc2ccc(F)cc2)C1 [Example 53, (R)-1-((R)-3-(4-fluorophenoxy)pyrrolidin-1-yl)-3-(((R)-1,2,3,4-tetrahydronaphthalen-1-yl)oxy)propan-2-ol]	5.71	6.64	–	–	–
Fc1ccc(O[C@H]2CCN(CC3CCc4cccnc43)C2)cc1 (stereo partly drawn) [Example 8, 7-(((S)-3-(4-fluorophenoxy)pyrrolidin-1-yl)methyl)-6,7-dihydro-5H-cyclopenta[b]pyridine]	5.13	6.01	–	–	–
NCCOc1ccc2c(c1)C(CN1CCC(Oc3ccc(F)cc3)CC1)CC2 (centres unmarked) [Example 114, 2-((3-((4-(4-fluorophenoxy)piperidin-1-yl)methyl)-2,3-dihydro-1H-inden-5-yl)oxy)ethan-1-amine]	–	7.15	–	52	–
Cc1ccc(N2CCN(C[C@H](O)COC3CCCCC3)CC2)cc1 [Example 77, (S)-1-(cyclohexyloxy)-3-(4-(p-tolyl)piperazin-1-yl)propan-2-ol]	5.04	6.68	–	–	–
O[C@@H](COC1CCCCC1)CN1C[C@@H]2C[C@H]1CN2Cc1ccccc1 [Example 308, (R)-1-((1S,4S)-5-benzyl-2,5-diazabicyclo[2.2.1]heptan-2-yl)-3-(cyclohexyloxy)propan-2-ol]	–	5.40	–	27	–
Cc1cccc(N2CCN(CC(O)COC3COc4ccccc43)CC2)c1C (centres unmarked) [Example 80, 1-((2,3-dihydrobenzofuran-3-yl)oxy)-3-(4-(2,3-dimethylphenyl)piperazin-1-yl)propan-2-ol]	6.77	7.22	–	–	–
CC(=O)Nc1ccc(OCC(O)CN2CCN(c3ccc(C)c(Cl)c3)CC2)cc1 (centres unmarked) [Example 90, N-(4-(3-(4-(3-chloro-4-methylphenyl)piperazin-1-yl)-2-hydroxypropoxy)phenyl)acetamide]	4.23	8.00	–	–	–
COc1ccc2c(c1)C(CN1CCC(OCc3ccc(F)cc3)CC1)CC2 (centres unmarked) [Example 247, 4-((4-fluorobenzyl)oxy)-1-((6-methoxy-2,3-dihydro-1H-inden-1-yl)methyl)piperidine]	6.57	7.00	–	–	–
O[C@@H](COC1CCCCC1)CN1CCC2(CCc3ccccc3O2)CC1 [Example 438, (R)-1-(cyclohexyloxy)-3-(spiro[chromane-2,4′-piperidin]-1′-yl)propan-2-ol]	5.88	6.82	–	–	–
OC(COc1ccccc1)CN1CCN(c2cccc(Cl)c2)CC1 (centres unmarked) [Example 89, 1-(4-(3-chlorophenyl)piperazin-1-yl)-3-phenoxypropan-2-ol]	6.36	7.15	–	–	–
Fc1ccc(N2CCC3(CCN(CC4Cc5ccccc5C4)C3)C2)cc1 (centres unmarked) [Example 340, 2-((2,3-dihydro-1H-inden-2-yl)methyl)-7-(4-fluorophenyl)-2,7-diazaspiro[4.4]nonane]	–	7.00	25	–	–
c1ccc([C@H]2COC3(CCN(C[C@@H]4CCc5ccccc54)CC3)C2)cc1 (single isomer, unassigned) [Compound 378]	6.11	7.22	–	–	–
OC(COC1CCCCC1)CN1[C@@H]2C[C@H]1CN(c1ccccc1)C2 (stereo partly drawn) [Example 281, 1-(cyclohexyloxy)-3-((1R,5S)-3-phenyl-3,6-diazabicyclo[3.1.1]heptan-6-yl)propan-2-ol]	5.75	5.87	–	–	–
O=C1c2ccccc2CCN1CCN1CCC(Oc2ccccc2)CC1 [Example 191, 2-(2-(4-phenoxypiperidin-1-yl)ethyl)-3,4-dihydroisoquinolin-1(2H)-one]	–	7.30	18	52	–
OC(COC1CCCCC1)CN1[C@@H]2CC[C@H]1CN(c1ccccc1)C2 (stereo partly drawn) [Example 286, 1-(cyclohexyloxy)-3-((1R,5S)-3-phenyl-3,8-diazabicyclo[3.2.1]octan-8-yl)propan-2-ol]	5.90	–	–	–	0.01
N#Cc1ccccc1OC1CCN(CC2Cc3cccnc3C2)CC1 (centres unmarked) [Example 138, 2-((1-((6,7-dihydro-5H-cyclopenta[b]pyridin-6-yl)methyl)piperidin-4-yl)oxy) benzonitrile]	–	6.89	10	–	–
COc1cccc(CCN2CCC3(CCc4ccccc4O3)CC2)c1 [Example 429, 1′-(3-methoxyphenethyl) spiro[chromane-2,4′-piperidine]]	5.87	6.43	–	–	–
OC(COC1CCCCC1)CN1C[C@H]2C[C@@H](C1)N2c1ccccc1 (stereo partly drawn) [Example 294, 1-(cyclohexyloxy)-3-((1R,5S)-6-phenyl-3,6-diazabicyclo[3.1.1]heptan-3-yl)propan-2-ol]	–	6.55	–	47	–
COc1cccc(CN2CCC3(CCc4ccccc4O3)CC2)c1 [Example 417, 1′-(3-methoxybenzyl) spiro[chromane-2,4′-piperidine]]	–	6.16	–	94	–
O=C(NCCN1CCCCC1)c1cccc(-c2ccc(Oc3ccc(F)cc3)cc2)n1 [Example 447, 6-(4-(4-fluorophenoxy)phenyl)-N-(2-(piperidin-1-yl)ethyl)picolinamide]	–	5.90	–	99	–
OC(COC1CCCCC1)CN1CCN(c2ccccc2)CC1 (centres unmarked) [Example 74, 1-(cyclohexyloxy)-3-(4-phenylpiperazin-1-yl)propan-2-ol]	4.29	7.22	–	–	–
Fc1ccc(OC2CCN(CC3Cc4ccncc4C3)CC2)cc1 (centres unmarked) [Example 158, 6-((4-(4-fluorophenoxy)piperidin-1-yl)methyl)-6,7-dihydro-5H-cyclopenta[c]pyridine]	–	6.82	-15	–	–
COCc1cccc(OC2CCN(CCN3CCCc4ccccc4C3=O)CC2)c1 [Example 206, 2-(2-(4-(3-(methoxymethyl)phenoxy)piperidin-1-yl)ethyl)-2,3,4,5-tetrahydro-1H-benzo[c]azepin-1-one]	–	< 5.89	–	46	–
